From patent publication US20240101540A1, “TARGETED PROTEIN DEGRADATION OF PARP14 FOR USE IN THERAPY” (Ribon Therapeutics, Inc., priority 2022, published 2024) come the findings set out here.

Molecules are shown by their SMILES. Structures can show the parent of a compound that is named as a salt.

The test has as its target T1, HiBiT tagged PARP14 (Homo sapiens, UniProt Q460N5).
T1 construct: engineered to contain a HiBiT tag on both alleles of the PARP14 gene; endogenous in cells; host or cells: Jurkat cells stably transfected with LgBiT (Promega), PARP14 locus edited by CRISPR/Cas9
The test can be described thus: HiBiT assay for the degradation of PARP14 (HiBiT tagged PARP14 in LgBiT expressing Jurkat cells, 2 or 24 hours). Format: cell-based. To be noted: Assay B (Example B): HiBiT tagged PARP14 degradation in LgBiT expressing Jurkat cells, read-out: DC50. Summed up: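 Jurkat cells stably expressing LgBiT with CRISPR knock-in of C-terminal HiBiT on both PARP14 alleles, 5,000 cells/well, treated with compound dose-response at 37 °C for 2 or 24 h. Live Cell Substrate luminescence normalised to 0.1% DMSO wells; DC50 from 4-parameter fit with floating top, bottom, Hill.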

T1 sequence (Q460N5 whole entry): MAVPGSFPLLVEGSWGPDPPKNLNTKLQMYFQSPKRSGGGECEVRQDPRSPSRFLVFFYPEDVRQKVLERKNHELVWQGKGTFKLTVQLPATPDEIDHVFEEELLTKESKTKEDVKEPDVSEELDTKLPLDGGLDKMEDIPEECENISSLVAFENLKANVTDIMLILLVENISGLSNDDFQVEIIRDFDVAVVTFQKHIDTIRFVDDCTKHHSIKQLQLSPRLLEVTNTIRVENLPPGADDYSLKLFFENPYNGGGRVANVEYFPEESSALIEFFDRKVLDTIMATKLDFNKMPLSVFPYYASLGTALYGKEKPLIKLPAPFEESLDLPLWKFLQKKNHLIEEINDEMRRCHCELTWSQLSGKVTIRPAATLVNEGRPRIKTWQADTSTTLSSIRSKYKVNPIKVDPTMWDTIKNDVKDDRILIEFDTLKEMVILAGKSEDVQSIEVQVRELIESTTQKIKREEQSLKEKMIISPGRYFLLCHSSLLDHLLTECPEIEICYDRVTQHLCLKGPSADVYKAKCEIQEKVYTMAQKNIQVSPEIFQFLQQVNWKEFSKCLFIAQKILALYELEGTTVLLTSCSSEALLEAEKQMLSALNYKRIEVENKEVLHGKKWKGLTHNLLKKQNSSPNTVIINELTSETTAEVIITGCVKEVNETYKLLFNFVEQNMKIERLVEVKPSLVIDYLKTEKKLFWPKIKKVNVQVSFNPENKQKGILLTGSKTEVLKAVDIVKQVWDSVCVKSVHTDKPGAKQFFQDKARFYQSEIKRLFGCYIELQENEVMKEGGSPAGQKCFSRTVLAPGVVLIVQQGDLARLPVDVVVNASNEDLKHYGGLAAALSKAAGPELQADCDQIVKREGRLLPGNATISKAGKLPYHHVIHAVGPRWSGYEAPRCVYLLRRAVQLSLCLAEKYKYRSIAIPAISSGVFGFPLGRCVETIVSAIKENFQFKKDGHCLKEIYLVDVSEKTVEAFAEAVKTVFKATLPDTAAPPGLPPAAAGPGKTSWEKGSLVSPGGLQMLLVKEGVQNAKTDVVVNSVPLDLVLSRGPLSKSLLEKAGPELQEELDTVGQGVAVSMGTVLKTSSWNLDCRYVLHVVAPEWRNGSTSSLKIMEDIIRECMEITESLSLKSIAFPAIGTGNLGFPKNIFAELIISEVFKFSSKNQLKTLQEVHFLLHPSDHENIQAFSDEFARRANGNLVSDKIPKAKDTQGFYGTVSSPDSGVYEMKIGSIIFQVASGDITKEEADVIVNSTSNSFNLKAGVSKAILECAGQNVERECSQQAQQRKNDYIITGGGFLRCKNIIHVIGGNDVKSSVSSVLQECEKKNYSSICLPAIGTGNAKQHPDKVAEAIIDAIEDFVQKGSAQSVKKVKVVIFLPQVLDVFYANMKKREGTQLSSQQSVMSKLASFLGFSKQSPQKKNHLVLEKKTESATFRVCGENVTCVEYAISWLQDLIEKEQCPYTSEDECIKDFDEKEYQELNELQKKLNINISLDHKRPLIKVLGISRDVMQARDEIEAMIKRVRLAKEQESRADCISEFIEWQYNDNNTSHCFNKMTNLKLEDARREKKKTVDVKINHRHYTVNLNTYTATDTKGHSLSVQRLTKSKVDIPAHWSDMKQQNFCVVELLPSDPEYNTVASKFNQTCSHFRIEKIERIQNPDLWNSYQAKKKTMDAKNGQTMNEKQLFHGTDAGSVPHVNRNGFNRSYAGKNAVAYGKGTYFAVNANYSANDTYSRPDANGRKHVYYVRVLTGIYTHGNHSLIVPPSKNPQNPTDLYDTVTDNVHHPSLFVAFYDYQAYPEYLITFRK

In the case of `O=C1CCC(Nc2ccc(N3CCC(N4CCC(COc5cc(F)c6c(=O)[nH]c(CC7CC7)nc6c5)CC4)CC3)c(F)c2)C(=O)N1` (stereo not shown) [Example 219, 3-((4-(4-(((2-(cyclopropylmethyl)-5-fluoro-4-oxo-3,4-dihydroquinazolin-7-yl)oxy)methyl)-[1,4′-bipiperidin]-1′-yl)-3-fluorophenyl)amino)piperidine-2,6-dione formate], the half-maximal degradation concentration (DC50) (usually the concentration at which degradation of the target reaches its halfway point) is less than 30 nM. For `O=C1CCC(Nc2ccc(N3CCC(CN4CCC(C#Cc5cc(F)c6c(=O)[nH]c(CSC7CCOCC7)nc6c5)CC4)CC3)c(F)c2)C(=O)N1` (stereo not shown) [Example 220, 3-((3-fluoro-4-(4-((4-((5-fluoro-4-oxo-2-(((tetrahydro-2H-pyran-4-yl)thio)methyl)-3,4-dihydroquinazolin-7-yl)ethynyl)piperidin-1-yl)methyl)piperidin-1-yl)phenyl)amino)piperidine-2,6-dione formate] the value was less than 30 nM. For `O=C1CCC(Nc2ccc(N3CCC(N4CC(N5CCC(COc6cc(F)c7c(=O)[nH]c(CSC8CCOCC8)nc7c6)CC5)C4)CC3)cc2F)C(=O)N1` (stereo not shown) [Example 221, 3-((2-fluoro-4-(4-(3-(4-(((5-fluoro-4-oxo-2-(((tetrahydro-2H-pyran-4-yl)thio)methyl)-3,4-dihydroquinazolin-7-yl)oxy)methyl)piperidin-1-yl)azetidin-1-yl)piperidin-1-yl)phenyl)amino)piperidine-2,6-dione formate] the value was less than 30 nM. For `O=C1CCC(Nc2ccc(N3CCC(N4CCC(COc5cc(F)c6c(=O)[nH]c(CSC7CCOCC7)nc6c5)CC4)CC3)cc2F)C(=O)N1` (stereo not shown) [Example 222, 3-((2-fluoro-4-(4-(((5-fluoro-4-oxo-2-(((tetrahydro-2H-pyran-4-yl)thio)methyl)-3,4-dihydroquinazolin-7-yl)oxy)methyl)-[1,4′-bipiperidin]-1′-yl)phenyl)amino)piperidine-2,6-dione] the value was less than 30 nM; for `O=C1CCC(Nc2ccc(N3CCC(N4CCC(CCOc5cc(F)c6c(=O)[nH]c(CSC7CCOCC7)nc6c5)CC4)CC3)c(F)c2)C(=O)N1` (stereo not shown) [Example 223, 3-((3-fluoro-4-(4-(2-((5-fluoro-4-oxo-2-(((tetrahydro-2H-pyran-4-yl)thio)methyl)-3,4-dihydroquinazolin-7-yl)oxy)ethyl)-[1,4′-bipiperidin]-1′-yl)phenyl)amino)piperidine-2,6-dione], less than 30 nM.

For `O=C1CCC(Nc2ccc(N3CCC(N4CCC(CN5CCC(COc6cc(F)c7c(=O)[nH]c(CSC8CCOCC8)nc7c6)CC5)CC4)CC3)c(F)c2)C(=O)N1` (stereo not shown) [Example 224, 3-((3-fluoro-4-(4-((4-(((5-fluoro-4-oxo-2-(((tetrahydro-2H-pyran-4-yl)thio)methyl)-3,4-dihydroquinazolin-7-yl)oxy)methyl)piperidin-1-yl)methyl)-[1,4′-bipiperidin]-1′-yl)phenyl)amino)piperidine-2,6-dione], the 50% degradation concentration (DC50) was less than 30 nM. In the case of `O=C1CCC(Nc2ccc(N3CCC(N4CCC(C(=O)N5CCC(COc6cc(F)c7c(=O)[nH]c(CSC8CCOCC8)nc7c6)CC5)CC4)CC3)c(F)c2)C(=O)N1` (stereo not shown) [Example 225, 3-((3-fluoro-4-(4-(4-(((5-fluoro-4-oxo-2-(((tetrahydro-2H-pyran-4-yl)thio)methyl)-3,4-dihydroquinazolin-7-yl)oxy)methyl)piperidine-1-carbonyl)-[1,4′-bipiperidin]-1′-yl)phenyl)amino)piperidine-2,6-dione] it was less than 30 nM. In the case of `O=C1CCC(Nc2ccc(N3CCN(CCN4CCC(C#Cc5cc(F)c6c(=O)[nH]c(CSC7CCOCC7)nc6c5)CC4)CC3)c(F)c2)C(=O)N1` (stereo not shown) [Example 226, 3-((3-fluoro-4-(4-(2-(4-((5-fluoro-4-oxo-2-(((tetrahydro-2H-pyran-4-yl)thio)methyl)-3,4-dihydroquinazolin-7-yl)ethynyl)piperidin-1-yl)ethyl)piperazin-1-yl)phenyl)amino)piperidine-2,6-dione formate] it was less than 30 nM; in that of `O=C1CCC(Nc2ccc(N3CC4(CC(CN5CCC(COc6cc(F)c7c(=O)[nH]c(CSC8CCOCC8)nc7c6)CC5)C4)C3)c(F)c2)C(=O)N1` (stereo not shown) [Example 227, 3-((3-fluoro-4-(6-((4-(((5-fluoro-4-oxo-2-(((tetrahydro-2H-pyran-4-yl)thio)methyl)-3,4-dihydroquinazolin-7-yl)oxy)methyl)piperidin-1-yl)methyl)-2-azaspiro[3.3]heptan-2-yl)phenyl)amino)piperidine-2,6-dione formate], less than 30 nM.

Consider `O=C1CCC(Nc2ccc(N3CCC(N4CCC(N5CCC(COc6cc(F)c7c(=O)[nH]c(CSC8CCOCC8)nc7c6)CC5)CC4)CC3)c(F)c2)C(=O)N1` (stereo not shown) [Example 228, 3-((3-fluoro-4-(4-(((5-fluoro-4-oxo-2-(((tetrahydro-2H-pyran-4-yl)thio)methyl)-3,4-dihydroquinazolin-7-yl)oxy)methyl)-[1,4′:1′,4″-terpiperidin]-1″-yl)phenyl)amino)piperidine-2,6-dione diformate], for which the DC50 is less than 30 nM.

Turning to `COc1cc(N2CCC(CN3CCC(COc4cc(F)c5c(=O)[nH]c(CSC6CCOCC6)nc5c4)CC3)CC2)c(F)cc1NC1CCC(=O)NC1=O` (stereo not shown) [Example 229, 3-((5-fluoro-4-(4-((4-(((5-fluoro-4-oxo-2-(((tetrahydro-2H-pyran-4-yl)thio)methyl)-3,4-dihydroquinazolin-7-yl)oxy)methyl)piperidin-1-yl)methyl)piperidin-1-yl)-2-methoxyphenyl)amino)piperidine-2,6-dione], the DC50 was less than 30 nM. On to `O=C1CCC(Nc2ccc(N3CCC(N4CC(N5CCC(COc6cc(F)c7c(=O)[nH]c(CSC8CCOCC8)nc7c6)CC5)C4)CC3)c(C(F)(F)F)c2)C(=O)N1` (stereo not shown) [Example 230, 3-((4-(4-(3-(4-(((5-fluoro-4-oxo-2-(((tetrahydro-2H-pyran-4-yl)thio)methyl)-3,4-dihydroquinazolin-7-yl)oxy)methyl)piperidin-1-yl)azetidin-1-yl)piperidin-1-yl)-3-(trifluoromethyl)phenyl)amino)piperidine-2,6-dione], for which the DC50 was less than 30 nM. As to `O=C1CCC(Nc2ccc(N3CCC(CN4CCC(N5CCC(COc6cc(F)c7c(=O)[nH]c(CSC8CCOCC8)nc7c6)CC5)CC4)CC3)c(F)c2)C(=O)N1` (stereo not shown) [Example 231, 3-((3-fluoro-4-(4-((4-(((5-fluoro-4-oxo-2-(((tetrahydro-2H-pyran-4-yl)thio)methyl)-3,4-dihydroquinazolin-7-yl)oxy)methyl)-[1,4′-bipiperidin]-1′-yl)methyl)piperidin-1-yl)phenyl)amino)piperidine-2,6-dione], the DC50 was less than 30 nM.

Turning to `O=C1CCC(Nc2ccc(N3CCC(N4CC(CN5CCC(COc6cc(F)c7c(=O)[nH]c(CSC8CCOCC8)nc7c6)CC5)C4)CC3)c(F)c2)C(=O)N1` (stereo not shown) [Example 232, 3-((3-fluoro-4-(4-(3-((4-(((5-fluoro-4-oxo-2-(((tetrahydro-2H-pyran-4-yl)thio)methyl)-3,4-dihydroquinazolin-7-yl)oxy)methyl)piperidin-1-yl)methyl)azetidin-1-yl)piperidin-1-yl)phenyl)amino)piperidine-2,6-dione], the DC50 is less than 30 nM.

For `O=C1CCC(Nc2ccc(N3CCC(N4CC(N5CCC(COc6ccc7c(=O)[nH]c(CSC8CCOCC8)nc7c6)CC5)C4)CC3)c(F)c2)C(=O)N1` (stereo not shown) [Example 233, 3-((3-fluoro-4-(4-(3-(4-(((4-oxo-2-(((tetrahydro-2H-pyran-4-yl)thio)methyl)-3,4-dihydroquinazolin-7-yl)oxy)methyl)piperidin-1-yl)azetidin-1-yl)piperidin-1-yl)phenyl)amino)piperidine-2,6-dione], the DC50 was less than 30 nM. For `O=C1CCC(Nc2ccc(N3CCN(CCN4CCC(COc5cc(F)c6c(=O)[nH]c(CSC7CCOCC7)nc6c5)CC4)C(=O)C3)c(F)c2)C(=O)N1` (stereo not shown) [Example 234, 3-((3-fluoro-4-(4-(2-(4-(((5-fluoro-4-oxo-2-(((tetrahydro-2H-pyran-4-yl)thio)methyl)-3,4-dihydroquinazolin-7-yl)oxy)methyl)piperidin-1-yl)ethyl)-3-oxopiperazin-1-yl)phenyl)amino)piperidine-2,6-dione] the value was less than 30 nM; for `O=C1CCC(Nc2ccc(N3CCC(N4CC(N5CCC(CCOc6cc(F)c7c(=O)[nH]c(CSC8CCOCC8)nc7c6)CC5)C4)CC3)c(F)c2)C(=O)N1` (stereo not shown) [Example 235, 3-((3-fluoro-4-(4-(3-(4-(2-((5-fluoro-4-oxo-2-(((tetrahydro-2H-pyran-4-yl)thio)methyl)-3,4-dihydroquinazolin-7-yl)oxy)ethyl)piperidin-1-yl)azetidin-1-yl)piperidin-1-yl)phenyl)amino)piperidine-2,6-dione], less than 30 nM. For `O=C1CCC(Nc2ccc(F)c(N3CCC(N4CC(N5CCC(COc6cc(F)c7c(=O)[nH]c(CSC8CCOCC8)nc7c6)CC5)C4)CC3)c2)C(=O)N1` (stereo not shown) [Example 236, 3-((4-fluoro-3-(4-(3-(4-(((5-fluoro-4-oxo-2-(((tetrahydro-2H-pyran-4-yl)thio)methyl)-3,4-dihydroquinazolin-7-yl)oxy)methyl)piperidin-1-yl)azetidin-1-yl)piperidin-1-yl)phenyl)amino)piperidine-2,6-dione] the value was less than 30 nM; for `O=C1CCC(Nc2ccc(N3CCC(N4CC(N5CCC(COc6cc(F)c7c(=O)[nH]c(CSC8CCCCC8)nc7c6)CC5)C4)CC3)c(F)c2)C(=O)N1` (stereo not shown) [Example 237, 3-({4-[4-(3-{4-[({2-[(cyclohexylsulfanyl)methyl]-5-fluoro-4-oxo-3H-quinazolin-7-yl}oxy)methyl]piperidin-1-yl}azetidin-1-yl)piperidin-1-yl]-3-fluorophenyl}amino)piperidine-2,6-dione formate], less than 30 nM.
